In ChEMBL document CHEMBL3507680, “University of Dundee, Gates Library screen for HepG2 cell viability”:

test: Human HepG2 cell viability assay in 384 well format; assay type: toxicity, cell-based; set-up: dose 125 nL, time 70.5 hour; concentration not given beside the values; conditions: HepG2 cells, read-out: Inhibition

SMILES	cytotoxicity at 70.5 h [%]
COC(=O)c1ccc(F)c(S(=O)(=O)Nc2ccc(C(N)=O)cc2)c1	-16.7
NCC1CCCN(c2nc(-c3ccccc3)nc3c2CCNCC3)C1 (configuration not stated)	5.19
Cc1ccc(CN2C[C@H]3C[C@H](C(=O)NCC4CC4)N(C)[C@H]3C2)o1	-12.6
O=S1(=O)COCCN1Cc1ccc(F)c(C(F)(F)F)c1	-10.2
O=C(c1cc2cc(F)ccc2[nH]1)N1CCC(Nc2cccnn2)CC1	24.4
O=C(NCc1ccccn1)[C@H]1COC[C@H]2CN(Cc3ccoc3)C[C@H]21	-2.29
O=C(NCC1OCCc2cn(CC3CCOCC3)nc21)c1ccncc1 (configuration not stated)	-10.6
Cn1cccc1C(=O)NCc1ccnc(C2CCCOC2)n1 (configuration not stated)	-4.4
Cc1nc(N2CCCCC2)ncc1-c1cc(O)nc(N2CCCCC2)n1	-0.353
CCOCCCC(=O)NCc1ccnc(N2CCN(C)CC2)c1	4.8
Cc1nc(N(C)C/C=C/c2ccccc2)c2cnn(C)c2n1	-5.71
CCC(CC)CN1CCC(n2cc(C3CCCC3)nn2)CC1	-3.87
CC(CNC(=O)Nc1cn[nH]c1)N1CCOCC1 (configuration not stated)	-12.1
CC1CCc2n[nH]c(C(=O)N3CCc4c(nc(N(C)C)[nH]c4=O)C3)c2C1 (configuration not stated)	-13.8
Cc1ccc(CN(CCCn2ccnc2)Cc2cnc(N(C)C)nc2)s1	21.5
CC(NC(=O)NCCCN1CCCCCC1)c1nncn1C (configuration not stated)	0.545
CCC1CN(C(=O)NCc2cccnc2-n2cccn2)CCO1 (configuration not stated)	-5.61
COc1cc(C)nc(N2CCN(C(C)c3nc(C4CC4)no3)CC2)n1 (configuration not stated)	-10.4
CN(CCc1ccccn1)C(=O)C1Cc2ccccc2CN1C (configuration not stated)	-10.6
Cc1ccc(CN(C)CC2(O)CCCN(C)C2)o1 (configuration not stated)	-2.94
CCCc1noc(C(C)S(=O)(=O)Cc2nc(C3CC3)no2)n1 (configuration not stated)	-2.49
CC(C)c1ncc2c(n1)CN(Cc1nc(-c3cccs3)no1)CC2	-11.9
O=C(NCCc1ccccn1)c1n[nH]c2c1CCC2	-5.6

SMILES	cytotoxicity at 70.5 h [%]
CC(=O)NCCNC(=O)NCCc1c(C)cc(C)cc1C	0.521
CN(CCOc1ccc(Cl)cc1)Cc1ccc(S(=O)(=O)N(C)C)o1	-2.41
CC(C)c1nccn1CCCNC(=O)c1ccc(-c2ccncc2)nc1	17.9
CCNC(=O)NC(=O)CN1CCOC(c2ccc(Br)cc2)C1 (configuration not stated)	-3.93
Cc1cc(C)n(C2CN(CC(O)COc3ccc(F)cc3)C2)n1 (configuration not stated)	-16.7
C[C@H]1C[C@H]2CN(S(=O)(=O)c3ccc(F)cc3)CC[C@@H]2O1	-3.04
CCc1cc(=O)n(CC(=O)N2CCCC2)c(-c2cccc(F)c2)n1	4.18
c1cnc(N2CCO[C@H]3CN(Cc4csnn4)C[C@H]32)cn1	-11.1
CC(C)c1nnc2n1CCN(C(=O)c1ccnc(N(C)C)c1)C2	-0.0863
C[C@@H]1CN(C(=O)C2CCOCC2)C[C@]12CCN(c1cccnc1)C2=O	-6.64
CC1CN(c2ncnc3ccccc23)CCO1 (configuration not stated)	10
COCCOc1cccc(C(=O)N2CCCCC2c2nccs2)c1 (configuration not stated)	-3.68
CCC(=O)N1CCCC1c1n[nH]cc1-c1ccccc1F (configuration not stated)	-6.39
CC1=N[C@@]2(CC[C@@H]3CN(S(C)(=O)=O)C[C@@H]32)C(=O)N1CC(C)C	-15.6
COC[C@H]1CN(CC2CC2)C(=O)[C@@H]2CCN(Cc3ccoc3)CC[C@H]12	-4.84
Cc1cccn2c(=O)cc(OC(=O)c3ccccc3)nc12	-17.1
FC(F)CNc1cnc(C2CCCN2)cn1 (configuration not stated)	3.12
Cc1ncsc1-c1nnc(C2CCN(CC3CCCCC3)CC2)o1	-8.62
CCCN(CCC)C(=O)c1cc(CN2CCC(O)CC2)on1	-6.98
O=C(c1ncoc1-c1ccco1)N1CCCN(c2nccs2)CC1	-2.69
Cn1ccnc1CN1CCC(c2nnc(Cn3cccn3)n2C)CC1	24.7
CC(=O)c1ccc(CN2CCCC23CCN(c2ccccn2)CC3)cc1	-25.1
CC(C)C[C@H](N)c1nnc(SCC(=O)Nc2ccc(Br)cc2)o1	-5.07

SMILES	cytotoxicity at 70.5 h [%]
COC(=O)c1cccc(S(=O)(=O)NCC(c2ccco2)N2CCCC2)c1 (configuration not stated)	-14.2
Cc1nc(CN2CCCC(NCC(=O)Nc3cccnc3)C2)no1 (configuration not stated)	-8.83
Cc1ccc(S(=O)(=O)n2ccn(C(=O)CC(C)C)c2=O)cc1	-19.3
Cc1nc(C)n(CC2CN(Cc3cc(C#N)ccc3F)CCO2)n1 (configuration not stated)	-1.96
Cc1ccc(C)c(OCc2cc(C(=O)N(C)Cc3nonc3C)no2)c1	3.12
CCOc1ccc(-c2ccnc(COc3ccccc3)n2)cc1C(=O)O	-0.267
CC(C)Cc1nc(CN2CCOC(Cn3cccn3)C2)no1 (configuration not stated)	15.4
CN(C)C(=O)N1CCN(Cc2ccccc2)[C@@H]2CS(=O)(=O)C[C@@H]21	-7.42
COc1ccc2c(c1)C(C(=O)NCCN1CCNC1=O)CC(=O)N2 (configuration not stated)	16.8
CCOc1ccc(C(=O)CCC(=O)N(C)Cc2snnc2C)cc1C	-7.49
Cc1ccc(C(=O)Nc2ccccc2F)n1C	-11.5
Cc1cc(NC(=O)CN2CCOC(Cn3nc(C)cc3C)C2)n(C)n1 (configuration not stated)	-8.28
CC(=O)N1CCc2c(nc(N(C)C)nc2NC(C)Cc2cccs2)C1 (configuration not stated)	-6.58
CNC(=O)[C@@]12CCO[C@@H]1CCN(S(=O)(=O)c1ccccc1C)C2	-10.5
O=C(c1cccc2c1OCCO2)N1CCCCC1Cn1cccn1 (configuration not stated)	-6.1
CN(CCNC(=O)c1cccnc1)S(C)(=O)=O	-5.32
CC(=O)N(C)c1nc(CN2CCOC(Cn3cc(C)cn3)C2)cs1 (configuration not stated)	13.6
CC(C)CN1CCN(S(=O)(=O)c2cn(C)cn2)Cc2cccnc21	-10.6
Cc1csc(CCCNC(C)CC(=O)Nc2ccc(F)cc2)n1 (configuration not stated)	5.43
OC1=C2C(=Nc3n[nH]c(O)c3C2c2ccco2)CCC1 (configuration not stated)	-9.2
COCCN1C[C@H]2CCN(C(=O)Nc3ccccc3C)CC[C@H]2S1(=O)=O	-11.5
CC(C)N1c2sc(-c3ccsc3)nc2CC1C(=O)NC1CC1 (configuration not stated)	-5.25
Oc1cccc(CN2CCN(C3CCc4ccccc4C3)CC2)c1 (configuration not stated)	19.8

SMILES	cytotoxicity at 70.5 h [%]
O=C(c1cnccn1)N1CCOC2(CCCN(c3ncccc3F)C2)C1 (configuration not stated)	-16.1
Cc1cccc(CNC(=O)N(CCCO)C2CCc3ccccc32)n1 (configuration not stated)	-1.88
O=C(Nc1ccc(-n2cncn2)c(F)c1)C1CCN(C(=O)C2CC2)CC1	1.9
O=C(NCc1ccccc1OCCO)Nc1ccc2c(c1)CCC2	0.688
Cc1cccc(CN2C(=O)OCC2CO)c1F (configuration not stated)	14.6
Cn1cc(-c2cnc(N3CCOCC3)nc2)cc1C(=O)NCCO	-6.33
Cc1nc(C)c(CNCC2CCCn3ccnc32)s1 (configuration not stated)	15.5
Cc1cc(C(=O)NC(C)CC(=O)c2cccs2)n(C)n1 (configuration not stated)	-12.7
CNC(=O)CN1CCOCC12CCN(CCc1ccccc1)CC2	-13.5
CCOc1ccnc(N2CCN(C(=O)c3cc[nH]n3)CC2)n1	-4.46
Cn1ccnc1-c1noc(NCc2ccc(Cl)cc2)n1	-8.5
Cc1nc(CNCc2cccnc2Oc2ccc(C)c(F)c2F)c[nH]1	0.762
O=C(NCCC(O)c1ccco1)c1ccco1 (configuration not stated)	-5.28
CN1CCN(Cc2cn3c(n2)CN(Cc2ccccn2)CC3)CC1	-9.35
CN(C)CCNCCC(Cc1ccccc1)C1CCOC(C)(C)C1 (configuration not stated)	-8.7
Cn1nnn(-c2ccc(NS(=O)(=O)c3ccc(Br)cc3)cc2)c1=O	-2.26
CCNC(=O)[C@@H]1C[C@H](N)CN1Cc1ccc(Sc2ccc(C)cc2)o1	-13.8
Cc1nc(C2CCCN(C(=O)c3c(C)nn4cccnc34)C2)no1 (configuration not stated)	-4.04
O=C1CCN(C(=O)c2ncoc2-c2ccco2)c2ncccc2N1	-9.5
O=C(CCc1ccncc1)Nc1ccc(OCC2CC2)cc1	-11.9
CC(CNCc1ccc(Br)cc1)Oc1ccccn1 (configuration not stated)	2.54
CN(C)C(=O)N1CCC2(CCCN(CCOc3ccccc3)C2)C1 (configuration not stated)	-14.6
O=C(Cn1cc(-c2ccccc2)ncc1=O)NC1CCCCC1	5.64

SMILES	cytotoxicity at 70.5 h [%]
O=C1CCc2cc(C(=O)NCc3ccc(-n4cncn4)nc3)ccc2N1	-0.0283
CCn1nc(C)c(C(=O)N2C[C@@H](CN(C)C)[C@@H](CO)C2)c1C	0.473
NC1CCCN(C(=O)c2csc(-c3ccc(C(F)(F)F)cc3)n2)CC1 (configuration not stated)	36.2
CSc1cccc(NC(=O)N2CCCC(CNC(=O)c3ccco3)C2)c1 (configuration not stated)	-8.32
O=c1[nH]c(CCN2CCCC(Cn3cncn3)C2)nc2ccccc12 (configuration not stated)	-0.545
Cc1cc(C(=O)Nc2ccn(CCCN3CCCC3)n2)no1	1.38
COC(=O)c1ccc(C2SC(C)=Nc3c2c(=O)[nH]n3C2CCCC2)cc1 (configuration not stated)	-14.5
Cn1nc(C2CCN(C(=O)Cc3ccsc3)CC2)c2cccnc21	-7.5
CC(CC#N)N(C)Cc1ccc(F)cc1F (configuration not stated)	-6.44
Cc1ccc(CC(=O)N2CCCC(c3ccn[nH]3)C2)cn1 (configuration not stated)	0.114
O=S1(=O)NC(c2ccnc(N3CCCCC3)n2)=Nc2ccccc21	7.4
CC(c1nc(C2CC2)no1)N1CCN(Cc2nnc(C3CC3)o2)CC1 (configuration not stated)	-2.67
COc1ccc(N2CCCC3(C2)CN(c2cccnc2)CCO3)cc1 (configuration not stated)	-9.47
O=C(c1cscn1)N1CCCC12CCCN(S(=O)(=O)c1ccccc1)C2 (configuration not stated)	-2.41
Cc1n[nH]c(C)c1CC(=O)N1CCN(C)C2(CCNC(=O)CC2)C1 (configuration not stated)	-4.03
CC(C)Oc1ncccc1CNC(=O)Nc1ccccn1	0.773
CN(CCCc1cnn(C)c1)C(=O)Nc1cccc2[nH]nnc12	-7.81
COc1ccc2cc(C3CN(C(=O)COC(C)C)CCO3)ccc2c1 (configuration not stated)	-2.81
CCS(=O)(=O)N1CCCC2(COCCN(c3ccccn3)C2)C1 (configuration not stated)	-18.6
Cc1nocc1C(=O)N1CCOC2(COCCN(C(C)C)C2)C1 (configuration not stated)	-5.11
